Consider 5 compounds from patent US9233949B2, “Treatment for oxidative stress and/or hypertension” (Georgetown University, priority 2009, dated 2016).

The subject of assay [1] is conscious salt-loaded spontaneously hypertensive rats. Nature of the assay: MAP in conscious salt-loaded SHR, daily oral gavage of drugs dissolved in DMSO. It is filed as in vivo, rat. As to conditions: for Δ MAP Day 1 / Δ MAP Day 2 / Δ MAP Day 3: mean vehicle-adjusted fall, 2 mL of 10 mmol/L daily oral gavage, DMSO, n=3; for blood pressure effect, summary of Table 1: over three days, DMSO vehicle. As for the experimental part:
In another experiment, conscious salt-loaded spontaneously hypertensive rats received daily oral gavage with 2 mL of 10 mmol/L tempol, telmisartan, tempol/telmisartan ester-linked adduct (YK), tempamine/telmisartan amide-linked adduct (PLJ), and tempol+telmisartan. The drugs were dissolved in DMSO.

Assay [2] concerns O2.^− generated by xanthine plus xanthine oxidase. Nature of the assay: Cell-free SOD mimetic / antioxidant assay, lucigenin-enhanced chemiluminescence. It is filed as biochemical. As to conditions: drugs 10^−4 M, cell-free buffer with xanthine plus xanthine oxidase. As for the experimental part: Low dose (10 μmol L^−1) lucigenin-enhanced chemiluminescence was used as previously described, to detect O2.^−, antioxidants or SOD mimetic properties. Vehicle or drugs (10^−4 M) were first added to cell-free buffer with O2.^− stimulated with xanthine (25 μmol/L) plus xanthine oxidase (9 IU/mL) to study the intrinsic antioxidant properties of the drugs used (34). Subsequent studies were performed in PGVSMCs from spontaneously hypertensive rats grown in 6-well plates. Cells (10^6 cells per well) were stimulated for 4 hours with Ang II (10^−6 M) to generate O2.^− in the presence of vehicle or drugs (19, 34, 45).

The subject of assay [3] is conscious spontaneously hypertensive rats. The assay is described as follows: Telemetric mean arterial pressure in conscious SHR on high salt diet after gavage. In kind it is in vivo, rat. The note with it: for reduction of MAP: 80 μmol·kg^−1 once-daily gavage, high salt diet, maximal 16-24 hours after each gavage; for reduction of BP compared with tempol: after the first and the fourth gavage. As for the experimental part:
Spontaneously hypertensive rats (SHR) were anesthetized with 3% isoflurane for placement of telemetric blood pressure recorders as described (46). After 10 days, spontaneously hypertensive rats were anesthetized with halothane between 9 and 10 am and given a 2 mL gavage. Each rat was first given a training gavage with 2 mL of vehicle (0.9% w/v sodium chloride) and, two days later a second vehicle gavage as the control group. We detected no differences in the pattern of 4-hourly BP recording after the first or second vehicle gavage, compared to a day in which no gavage was given (data not shown). Blood pressure was recorded continuously. Data are presented as mean values over 4-hr periods for mean arterial pressure (MAP) and heart rate (HR). Two days after the second vehicle gavage, rats were again anesthetized with halothane and given a 2 mL gavage with one of the test drugs (10 mmol/L or 80 μmol·kg^−1). In random order rats received tempol, telmisartan, tempol plus telmisartan, or tempol/telmisartan ester-linked adduct (YK). Each rat received only one drug or drug combination. Two additional groups were tested similarly with candesartan and tempol+candesartan.
Preliminary studies were undertaken of antihypertensive responsiveness to gavage with 80 and 800 μmol kg^−1 of tempol. […] Therefore, the study was conducted in rats equilibrated to a high salt intake (Teklad Inc, 2826 Latham Drive, Madison, Wis. 53713) and given four daily doses of […] of drugs or vehicle.

The subject of assay [4] is Ang II-stimulated spontaneously hypertensive rat preglomerular vascular smooth muscle cells. Nature of the assay: O2.^− generation in Ang II-stimulated PGVSMCs, lucigenin-enhanced chemiluminescence. In kind it is cell-based. As for the experimental part:
Preglomerular vascular smooth muscle cells (PGVSMCs) were isolated from 13- to 15-week-old male spontaneously hypertensive rats purchased from Taconic Farms (Germantown, N.Y.) as previously described (3, 9). Briefly, 1% Fe2O3 in DMEM was injected into isolated kidneys through the renal artery. The iron-loaded kidney was removed from the rat, the cortex was minced and washed in a 1% collagenase IV solution. Blood vessels were collected on a magnet and incubated with DMEM/F12 supplemented with 10% FCS and 20 U of penicillin-streptomycin. Experiments were conducted between passage 5 and 15. PGVSMCs were cultured in DMEM/F12 supplemented with 10% FBS, 100 U/mL penicillin, 100 μg/mL streptomycin and 200 μg/mL glutamine at 37° C. in 5% CO2-95% air at 98% humidity. […]
To determine the effects of drugs, cells were pretreated with graded concentrations (10^−12 to 10^−4 M) of tempol, telmisartan, tempol plus telmisartan, and tempol/telmisartan ester-linked adduct or vehicle (PBS) for 2 hours. […] Chemiluminescence was quantitated in a reader (AutoLumatPlus LB 953; EG&G, Berthold, Germany). The dynamic tracing was recorded for 180 seconds after the addition of lucigenin (10 μmol·L^−1) and NADPH (100 μmol·L^−1). […] The protein concentrations were measured with Bio-Rad kit (Hercules, Calif.). […]

A further assay deals with T1, AT2-R (Bos taurus, UniProt G5E6F7).
T1 construct: from tissue; host or cells: bovine cerebellum membranes
T1 sequence (G5E6F7 1-362): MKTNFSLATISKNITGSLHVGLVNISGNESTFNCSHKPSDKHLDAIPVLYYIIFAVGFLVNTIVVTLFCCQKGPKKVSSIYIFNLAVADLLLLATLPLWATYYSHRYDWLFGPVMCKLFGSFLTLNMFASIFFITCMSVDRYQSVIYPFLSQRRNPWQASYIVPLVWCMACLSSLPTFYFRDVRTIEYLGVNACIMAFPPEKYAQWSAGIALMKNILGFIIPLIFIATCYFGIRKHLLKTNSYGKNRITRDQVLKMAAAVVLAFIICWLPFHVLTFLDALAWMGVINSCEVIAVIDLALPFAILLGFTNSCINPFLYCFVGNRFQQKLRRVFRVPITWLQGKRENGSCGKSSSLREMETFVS
The assay is described as follows: Angiotensin II, Type 2 receptor radioligand binding displacement. On the set-up: species or system bovine. The note with it: 10^−8 M drug concentration, n=2 (FIG. 3B). As for the experimental part: Angiogensin II, Type 2 Assay.
The assay was performed with a membrane preparation from bovine cerebellum. 200 μL of receptor suspension was re-suspended as 400 units in 80 mL and 100 units in 20 mL. The ligand [^125I]Tyr-4-Angiotensin II ([M] 1E-^10, Kd (binding affinity) 4E-^10, Bmax 2.11 fmol/mg) was used as a control. Radioactivity was counted in DPM. The assay buffer was 50 mM TRIS-HCl, containing 100 mM NaCl, 1 mM MgCl2, 0.1 mM Bacitracin, 0.1% BSA, (pH 7.2 at 25° C.) in an assay volume of 250 μL. Radioligand: 25 μL of Sar1, Tyr4-[^125I].

Turning to `CCCc1nc2c(C)cc(-c3nc4ccccc4n3C)cc2n1Cc1ccc(-c2ccccc2C(=O)NC2CC(C)(C)N([O])C(C)(C)C2)cc1` [PLJ], in assay [1], the “Δ MAP Day 1” value is recorded as −13 mmHg; the “Δ MAP Day 2” value was −14 mmHg; the “Δ MAP Day 3” value is −14 mmHg; the “blood pressure effect, summary of Table 1” value (from here on “blood pressure effect”) is “reduce blood pressure of conscious SHR similar to telmisartan”.

On to `CCCc1nc2c(C)cc(-c3nc4ccccc4n3C)cc2n1Cc1ccc(-c2ccccc2C(=O)O)cc1` [Telmisartan, telmisartan], for which, in assay [1], the “Δ MAP Day 1” value is given as −14 mmHg, the “Δ MAP Day 2” value is on record as −20 mmHg and the “Δ MAP Day 3” value is listed as −16 mmHg. The “inhibition of lucigenin-enhanced chemiluminescence counts” value in assay [2] is on record as “ineffective”. In assay [3], the “reduction of MAP” value is reported as “reduced the MAP” and the “reduction of BP compared with tempol” value was “significantly more effective in reducing the BP than tempol”.

With `CC1(C)CC(O)CC(C)(C)N1[O]` [Tempol, tempol], in assay [1], the “Δ MAP Day 1” value stood at 0 mmHg; the “Δ MAP Day 2” value is −4 mmHg; the “Δ MAP Day 3” value is −2 mmHg; the “blood pressure effect” value was “apparent absence of any consistent effect”. Further, the “reduction of MAP” value in assay [3] is reported as “reduced the MAP”. In addition, the “fall in MAP, high salt (6 g·100 g^−1) compared to normal salt (0.3 g·100 g^−1) diet” value in assay [3] (pilot study, 16-24 hours after tempol 80 μmol kg^−1) is “twice as great”. For the same compound, the “fall in MAP after 4 daily doses compared to the first dose” value in assay [3] (pilot study, high salt intake) was “twice as great”. Besides, the “inhibition of O2.^− generation, tempol versus telmisartan” value in assay [4] (at 10^−4 M) was “significantly (p<0.05) more effective than telmisartan”.

For `CCCc1nc2c(C)cc(-c3nc4ccccc4n3C)cc2n1Cc1ccc(-c2ccccc2C(=O)OC2CC(C)(C)N([O])C(C)(C)C2)cc1` [YK], the AT2-R binding displacement result on AT2-R is “without effects on AT2-R binding”. Moreover, in assay [1], the “Δ MAP Day 1” value is recorded as −13 mmHg; the “Δ MAP Day 2” value is reported as −14 mmHg; the “Δ MAP Day 3” value is −14 mmHg; the “blood pressure effect” value was “reduce blood pressure of conscious SHR similar to telmisartan”. Also, in assay [3], the “reduction of MAP” value is on record as “reduced the MAP”. Besides, the “reduction of BP compared with single drugs” value in assay [3] (12-24 hours after the first gavage) was “more effective than either tempol or telmisartan”. Moreover, in assay [3] (16-24 hours after the fourth gavage), the “additive effect on BP with repeated dosing” value is on record as “lost with repeated dosing”. For the same compound, the “reduction of MAP compared with candesartan or candesartan plus tempol” value in assay [3] (over 24 hours) is given as “reduced MAP significantly more than candesartan or candesartan plus tempol”. Also, the “reduction of blood pressure compared with candesartan or candesartan plus tempol” value in assay [3] (over four days) is listed as “still reduced blood pressure more than candesartan or candesartan plus tempol”. For the same compound, the “inhibition of O2.^− generation” value in assay [4] (10^−12 to 10^−4 M, 10^−6 M Ang II for 4 hours, comparison at 10^−11, 10^−10 and 10^−6 M) is listed as “significantly more effective than tempol or telmisartan alone”.

In the case of `CCOc1nc2cccc(C(=O)O)c2n1Cc1ccc(-c2ccccc2-c2nnn[nH]2)cc1` [candesartan], in assay [3], the “reduction of MAP” value is “reduced the MAP” and the “reduction of BP compared with tempol” value is “significantly more effective in reducing the BP than tempol”.
